Usually EC50 stands for the concentration at which the effect is half-maximal. Read a low EC50 as an effect from little substance.

CXCR7, sequence (P25106 whole entry): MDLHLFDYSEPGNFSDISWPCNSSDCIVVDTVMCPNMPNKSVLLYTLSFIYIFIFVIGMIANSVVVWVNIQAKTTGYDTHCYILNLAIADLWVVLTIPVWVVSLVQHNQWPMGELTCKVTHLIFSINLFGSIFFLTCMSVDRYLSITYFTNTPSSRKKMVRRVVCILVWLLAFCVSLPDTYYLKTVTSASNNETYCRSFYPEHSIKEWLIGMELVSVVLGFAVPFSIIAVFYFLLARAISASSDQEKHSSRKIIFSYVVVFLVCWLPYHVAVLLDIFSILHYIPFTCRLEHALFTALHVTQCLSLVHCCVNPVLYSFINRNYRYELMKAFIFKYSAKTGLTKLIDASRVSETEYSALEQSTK
CXCR7, sequence (P32121 whole entry partner): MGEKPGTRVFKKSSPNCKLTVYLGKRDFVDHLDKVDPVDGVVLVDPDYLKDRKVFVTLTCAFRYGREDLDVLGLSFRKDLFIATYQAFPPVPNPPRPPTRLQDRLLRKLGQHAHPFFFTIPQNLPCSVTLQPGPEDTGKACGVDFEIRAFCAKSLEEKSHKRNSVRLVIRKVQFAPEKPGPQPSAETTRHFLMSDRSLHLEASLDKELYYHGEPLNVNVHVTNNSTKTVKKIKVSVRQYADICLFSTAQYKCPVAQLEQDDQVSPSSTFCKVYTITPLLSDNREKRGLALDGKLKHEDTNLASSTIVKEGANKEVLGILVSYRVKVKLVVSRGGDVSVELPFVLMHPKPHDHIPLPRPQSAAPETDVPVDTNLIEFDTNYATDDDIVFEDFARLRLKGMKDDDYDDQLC

For the assay, the target named is CXCR7 (Homo sapiens (Human), UniProt P25106). Description: PathHunter CHO-K1 CXCR7 b-arrestin assay (agonistic activity). The class given is cell-based. Particulars: PathHunter CHO-K1 CXCR7 b-arrestin cell line. How it is done:
The CXCl12 receptor and CXCR7 agonistic activities of the compounds of formula (I) are determined in accordance with the following experimental method.
The assay is using the PathHunter™ CHO-K1 CXCR7 b-arrestin cell line from DiscoverX. The system is based on the Enzyme Fragment Complementation Technology. Two complementing fragments of the b-galactosidase enzyme are expressed within stably transfected cells. The larger portion of b-gal, termed EA for Enzyme Acceptor, is fused to the C-terminus of b-arrestin 2. The smaller fragment, termed ProLink™ tag, is fused to CXCR7 at the C-terminus. Upon activation, b-arrestin is recruited which forces the interaction of ProLink and EA, allowing complementation of the two fragments of b-gal and the formation of a functional enzyme which is capable of hydrolysing the substrate and generating a chemiluminescent signal.
CHO-K1 CXCR7 b-arrestin cells are detached from culture dishes with a cell dissociation buffer (Invitrogen, #13151-014) and collected in growing medium (F12 HAMS 90% (v/v)/FCS 10% (v/v), Penicilin/streptomycin 1% (v/v)). 5000 cells per well (in 20 μl) are seeded in a 384 well plate (white-walled, clear bottom; BD Falcon #353274). The plate is incubated at 37° C./5% CO2 for 24 hours. Medium is then replaced by 20 μl OPTIMEM (Invitrogen #31985) for 3 to 4 hours. Test compounds are dissolved at 10 mM in DMSO and serially diluted in DMSO to 200× of the final concentration for dose response curves. Compounds are then diluted 1:33.3 in HBSS1×. 5 μl/well of HBSS1×/20 mM HEPES/0.2% BSA are added to the assay plate followed by addition of 5 μl/well of diluted compounds. CXCL12 (Peprotech #300-28A) may be used as a reference agonist. The plate is incubated for 90 minutes at 37° C. 12 μl of detection reagent (Path Hunter Detection Kit, DiscoveRx, #93-0001) is transferred to the assay plate and to the plate is incubated for 1 hour at room temperature. Luminescent signal is read in a microplate reader (FLUOstar Optima, bmg). The calculated EC50 values may fluctuate depending on the daily cellular assay performance. Fluctuations of this kind are known to those skilled in the art. Average EC50 values from several measurements are given as geometric mean values.
As to `Cc1ccc(NC(=O)c2ccc(F)cc2)cc1CN1CCC(C(=O)NC(C)(C)C)CC1` [Example 1.300], the midpoint of the response, the EC50, lay at 1 nM.

`Cc1ccc(C(=O)Nc2cccc(CN3CCC(C(=O)NC4CCCCC4)CC3)c2)cn1` [Example 1.064]: it took 19 nM to reach a half-maximal effect (EC50).

In turn, `CC(C)(C)c1ccc(C(=O)Nc2cccc(CN3CCC(C(=O)NC4CCCCC4)CC3)c2)s1` [Example 1.283] yielded an EC50 of 34 nM.

In the case of `CC(C)(C)c1ccc(C(=O)Nc2cccc(CN3CCC(C(=O)NC4CCCCC4)CC3)c2)cc1` [Example 1.032], a half-maximal response (EC50) required 34 nM.

In the case of `O=C(Cc1ccccc1)Nc1cccc(CN2CCC(C(=O)NC3CCCCC3)CC2)c1` [Example 1.011], the EC50 is 7 nM.

`Cc1cncc(C(=O)Nc2ccc(Cl)c(CN3CCC(C(=O)NC4CCCC4)CC3)c2)c1` [Example 1.226] had a concentration giving a half-maximal response (EC50) of 2 nM. This EC50 is about 3.5-fold lower than that of the compound before.

In the case of `Cc1cc(C(=O)Nc2cccc(CN3CCC(C(=O)NC4CC4)CC3)c2)ccn1` [Example 1.203], the EC50 was found to be 56 nM. This EC50 lies about 28-fold higher than the previous one.

In turn, `O=C(Nc1cccc(CN2CCC(C(=O)NC3CCCCC3)CC2)c1)c1cnccn1` [Example 1.141] yielded an EC50 of 2 nM.

`Cc1cc(F)cc(C(=O)Nc2cccc(CN3CCC(C(=O)NC4CCCCC4)CC3)c2)c1` [Example 1.117] returned an EC50 of 4 nM.

In the case of `O=C(Nc1cccc(CN2CCC(C(=O)NC3CCCC3)CC2)c1)c1cc(C(F)(F)F)ccn1` [Example 1.216], the EC50 was 7 nM.

`CC(c1cccc(NC(=O)c2ncccn2)c1)N1CCC(C(=O)NC2CCCCC2)CC1` (racemic) [Example 1.195]: a half-maximal effect (EC50) was put at 176 nM. This EC50 is about 25-fold higher than that of the compound before.

In the case of `O=C(Nc1cccc(CN2CCC(C(=O)NC3CCCCC3)CC2)c1)c1n[nH]c2ccccc12` [Example 1.008], the EC50 is 35 nM.

In turn, `COc1ccc(C(=O)Nc2cccc(CN3CCC(C(=O)NC4CCCCC4)CC3)c2)cc1C` [Example 1.122] returned a concentration for a half-maximal effect (EC50) of 15 nM. This EC50 is about 2.3-fold lower than that of the compound before.

Regarding `Cn1cc(CC(=O)Nc2cccc(CN3CCC(C(=O)NC4CCCCC4)CC3)c2)c2ccccc21` [Example 1.030], the 50% effective concentration (EC50) stood at 18 nM.

The compound `O=C(Nc1cccc(CN2CCC(C(=O)NC3CCCCC3)CC2)c1)c1ccc(C(F)(F)F)cc1F` [Example 1.134] displayed an EC50 of 8 nM.

With `O=C(Nc1cccc(CN2CCC(C(=O)NC3CCCCC3)CC2)c1)c1cccc(Cl)c1` [Example 1.033], the EC50 amounted to 2 nM.

With `O=C(Nc1cccc(CN2CCC(C(=O)NC3CCCCC3)CC2)c1)c1cncc(C(F)(F)F)c1` [Example 1.058], the EC50 is 5 nM.

`O=C(Nc1cccc(CN2CCC(C(=O)NC3CCCCC3)CC2)c1)c1cc(C(F)(F)F)cc(C(F)(F)F)c1` [Example 1.136] gave an EC50 of 43 nM.

`O=C(Nc1cccc(CN2CCC(C(=O)NC3CCCCC3)CC2)c1)C1CCCCCC1` [Example 1.152] came in with an EC50 of 10 nM.

For `O=C(Nc1ccc(Cl)c(CN2CCC(C(=O)NC3CCCC3)CC2)c1)c1cncc(C(F)(F)F)c1` [Example 1.225], the EC50 was 0.8 nM.

`CC(c1cccc(NC(=O)c2ccc(C#N)cc2)c1)N1CCC(C(=O)NC2CCCCC2)CC1` (racemic) [Example 1.178] registered an EC50 of 64 nM.

In turn, `CC(C)Cc1cc(C(=O)Nc2cccc(C(C)N3CCC(C(=O)NC4CCCCC4)CC3)c2)n(C)n1` (racemic) [Example 1.189] showed an EC50 of 15 nM.

Compound `Cc1ccc(C(=O)Nc2cccc(CN3CCC(C(=O)NC4CCCCC4)CC3)c2)c(C)c1` [Example 1.111] displayed an EC50 of 4 nM.

As for `O=C(Nc1cccc(CN2CCC(C(=O)NC3CCCC3)CC2)c1)c1ccc2ncccc2c1` [Example 1.213], the midpoint of the response, the EC50, lay at 3 nM.

With “6-Trifluoromethyl-pyridine-2-carboxylic acid [3-(4-pentylcarbamoyl-piperidin-1-ylmethyl)-phenyl]-amide [Example 2.080]”, the EC50 amounted to 15 nM.

In turn, `O=C(Nc1cccc(CN2CCC(C(=O)NC3CCCCC3)CC2)c1)c1cc(Cl)ccc1Cl` [Example 1.137] gave an EC50 of 8 nM. This EC50 is about 1.9-fold lower than that of the compound before.

Compound `CCc1ccc(C(=O)Nc2cccc(CN3CCC(C(=O)NC4CCCCC4)CC3)c2)cc1` [Example 1.097] yielded an EC50 of 5 nM.

In turn, `O=C(Cc1ccc(F)cc1Cl)Nc1cccc(CN2CCC(C(=O)NC3CCCCC3)C2)c1` (racemic) [Example 2.100, rac-1-{3-[2-(2-Chloro-4-fluoro-phenyl)-acetylamino]-benzyl}-pyrrolidine-3-carboxylic acid cyclohexylamide] gave an EC50 of 161 nM.

The compound `O=C(Nc1cccc(CN2CCC(C(=O)NC3CCCCC3)CC2)c1)c1ccccc1Cl` [Example 1.050] displayed an EC50 of 12 nM.

`O=C(Nc1cccc(CN2CCC(C(=O)NC3CCCCC3)CC2)c1)c1ccc(Cl)c2c1CCO2` [Example 1.143] came in with an EC50 of 5 nM.

The compound `O=C(Nc1cccc(CN2CCC(C(=O)NC3CCCCC3)CC2)c1)c1cccc(Cl)n1` [Example 1.078] displayed an EC50 of 1 nM. Compared with the last compound, the EC50 is about 5-fold lower.

With `CC(C)c1ccc(C(=O)Nc2cccc(CN3CCC(C(=O)NC4CCCCC4)CC3)c2)cc1` [Example 1.098], the EC50 is 12 nM.

The compound `O=C(Nc1cccc(CN2CCC(C(=O)NC3CCCCC3)CC2)c1)c1nccc2ccccc12` [Example 1.021] came in with an EC50 of 39 nM.

The compound `CC(C)(C)NC(=O)C1CCN(Cc2cccc(NC(=O)c3cncc(C(F)(F)F)c3)c2)CC1` [Example 1.230] displayed an EC50 of 1 nM.

The compound `O=C(Nc1ccc(Cl)c(CN2CCC(C(=O)NC3CCCC3)CC2)c1)c1ccc2ncccc2c1` [Example 1.221] gave an EC50 of 1 nM. This lies in the single-digit nanomolar range.

The compound `Cc1c(F)cccc1C(=O)Nc1cccc(CN2CCC(C(=O)NC3CCCCC3)CC2)c1` [Example 1.114] yielded an EC50 of 13 nM.

On to `COC(=O)c1cncc(C(=O)Nc2cccc(CN3CCC(C(=O)NC(C)(C)C)CC3)c2)c1` [Example 1.349], for which the EC50 was 34 nM.

`CC(C)(C)NC(=O)C1CCN(Cc2cccc(NC(=O)c3ccnnc3)c2)CC1` [Example 1.323] displayed an EC50 of 66 nM.

As to “1-[3-(4-Chloro-benzoylamino)-benzyl]-piperidine-4-carboxylic acid (tetrahydro-pyran-4-yl)-amide [Example 2.013]”, the EC50 was 13 nM.

In the case of `COc1cc(CN2CCC(C(=O)NC(C)(C)C)CC2)cc(NC(=O)c2cccc(C(F)(F)F)n2)c1` [Example 1.325], it took 262 nM to reach a half-maximal effect (EC50).

The compound `Cc1cc(CN2CCC(C(=O)NC(C)(C)C)CC2)cc(NC(=O)c2ccc(F)cc2)c1` [Example 1.318] showed an EC50 of 13 nM.

As to `COc1cc(OC)cc(C(=O)Nc2cccc(CN3CCC(C(=O)NC4CCCCC4)CC3)c2)c1` [Example 1.125], the EC50 worked out at 10 nM.

Consider `CCC(C)(C)NC(=O)C1CCN(Cc2cccc(NC(=O)c3ccc(F)c[n+]3[O-])c2)CC1` [Example 4.021, 5-Fluoro-1-oxy-pyridine-2-carboxylic acid {3-[4-(1,1-dimethyl-propylcarbamoyl)-piperidin-1-ylmethyl]-phenyl}amide], for which the EC50 was 2 nM.

Turning to `Cc1c(CN2CCC(C(=O)NC(C)(C)C)CC2)cccc1NC(=O)c1cccc(C(F)(F)F)n1` [Example 1.315], the EC50 was found to be 193 nM. This EC50 is about 96-fold higher than that of the compound before.

With `CC(C)(C)NC(=O)C1CCN(Cc2cccc(NC(=O)Cc3cccc(Cl)c3Cl)c2)CC1` [Example 1.246], the concentration for a half-maximal effect (EC50) stood at 3 nM. This EC50 lies about 64-fold lower than the previous one.

As for `Cc1ccc(C(=O)Nc2cc(CN3CCC(C(=O)NC4CCCCC4)CC3)ccc2Cl)s1` [Example 1.158], a half-maximal response (EC50) required 14 nM. This EC50 lies about 4.7-fold higher than the previous one.

Consider `O=C(Nc1cccc(CN2CCC(C(=O)NC3CCCCC3)CC2)c1Cl)c1ccc(Cl)cc1` [Example 1.162], for which the EC50 was determined as 2780 nM.

Compound `O=C(Nc1cccc(CN2CCC(C(=O)NC3CCCCC3)CC2)c1)c1ccc(Cl)cc1Cl` [Example 1.138] displayed an EC50 of 6 nM. Against the preceding compound, the EC50 is about 460-fold lower.

Consider `Cc1ccc(C(=O)Nc2cccc(CN3CCC(C(=O)NC4CCCCC4)CC3)c2Cl)s1` [Example 1.163], for which a half-maximal response (EC50) required 386 nM. Compared with the last compound, the EC50 is about 64-fold higher.

On to `O=C(Cc1ccc(Cl)cc1)Nc1cccc(CN2CCC(C(=O)NC3CCCCC3)CC2)c1` [Example 1.037], for which the response was half-maximal at 34 nM (EC50).

Take `Cc1cccc(C(=O)Nc2cccc(CN3CCC(C(=O)NC4CCCCC4)CC3)c2)c1C` [Example 1.109]: a half-maximal response (EC50) required 40 nM.

As to `O=C(Nc1cccc(CN2CCC(C(=O)NC3CCCC3)CC2)c1)c1cncc(C(F)(F)F)c1` [Example 1.212], it took 2 nM to reach a half-maximal effect (EC50).

With `CC(C)(C)NC(=O)C1CCN(Cc2cccc(NC(=O)Cc3ccc(F)cc3Cl)c2)CC1` [Example 1.248], a half-maximal effect (EC50) was put at 2 nM. That is a single-digit nanomolar value.

Compound `O=C(Nc1cccc(CN2CCC(C(=O)NC3CCCCC3)CC2)c1)c1cccc(F)c1F` [Example 1.128] returned an EC50 of 5 nM.

As for `O=C(Nc1cccc(CN2CCC(C(=O)NC3CCCCC3)CC2)c1)c1cncc2ccccc12` [Example 1.022], the EC50 was 97 nM.

With `CC(C)(C)NC(=O)C1CCN(Cc2cccc(NC(=O)c3ccc(C(F)(F)F)cc3)c2)CC1` [Example 1.238], the EC50 came out at 4 nM.

Values taken from US9428456B2, “1-[m-carboxamido(hetero)aryl-methyl]-heterocyclyl-carboxamide derivatives” (Actelion Pharmaceuticals Ltd., priority 2012, dated 2016).
